Reference: patent US7652047B2, “Phenylamino isothiazole carboxamidines as MEK inhibitors” (Ardea Biosciences, Inc., priority 2005, dated 2010)

The compounds below were run against T1, MEK1^CA (human GST-MEK1, constitutively active, Ser218Asp and Ser222Asp) (Homo sapiens, UniProt Q02750, S218D/S222D) (assay: MEK1 enzymatic activity assay (MEK1^CA / ERK2 / MBP, [γ-33P]ATP incorporation)). Settings: Table 1, compounds of formula I; read-out: Avg IC50.
T1 construct: GST; made in house; host or cells: Escherichia coli
T1 sequence (Q02750 whole entry S218D/S222D): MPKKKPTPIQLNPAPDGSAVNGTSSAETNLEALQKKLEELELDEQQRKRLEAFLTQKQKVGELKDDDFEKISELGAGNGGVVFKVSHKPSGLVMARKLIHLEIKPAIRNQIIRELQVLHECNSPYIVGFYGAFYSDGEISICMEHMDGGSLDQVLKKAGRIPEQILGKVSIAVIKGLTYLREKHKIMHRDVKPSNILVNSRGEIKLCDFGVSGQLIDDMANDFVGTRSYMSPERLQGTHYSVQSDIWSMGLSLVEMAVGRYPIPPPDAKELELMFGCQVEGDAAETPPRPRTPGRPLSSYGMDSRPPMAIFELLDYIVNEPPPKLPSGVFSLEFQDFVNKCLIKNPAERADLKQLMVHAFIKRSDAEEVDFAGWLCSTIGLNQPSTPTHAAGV
Assay type: biochemical
Method in brief: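 Cascade assay: 25 µl reactions with 0.002 nmol E. coli-expressed GST-MEK1 S218D/S222D, 0.02 nmol His-tagged mouse ERK2, 0.25 nmol MBP, 0.25 nmol unlabeled ATP and 0.1 µCi [γ-33P]ATP. Compound preincubated 30 min at ambient temperature with MEK1/ERK2; stopped with TCA, 33P-labelled protein filter-captured and scintillation-counted.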
For CC(C)NC(=N)c1c(O)nsc1Nc1ccc(Oc2ccc(C(F)(F)F)cc2)cc1 [compound 391], the IC50 was 100 to 500 nM. Work on Cc1ccc(Oc2ccc(Nc3snc(O)c3C(=N)NCC3CCCCC3)cc2)cc1 [compound 109] yielded an IC50 of 1 to 100 nM. With CC(CO)NC(=N)c1c(O)nsc1Nc1ccccc1Oc1ccccc1 (stereo not shown) [compound 439] the IC50 was over 500 nM.

Same assay, conditions: Table 4, R' is (CH2)1 or 2-G; read-out: IC50
Work on CC1CN(CCNC(=N)c2c(O)nsc2Nc2ccc(Oc3cc(Cl)ccc3Cl)cc2)CC(C)O1 (stereo not shown) yielded an IC50 of 100 to 500 nM. Compound N=C(NCCN1CCCC1=O)c1c(O)nsc1Nc1ccc(Oc2cc(Cl)ccc2Cl)cc1 has an IC50 of 1 to 100 nM. N=C(NCCc1ccccc1)c1c(O)nsc1Nc1ccc(Oc2ccccc2)cc1 [drawing 821] was tested, and the IC50 was 100 to 500 nM. N=C(NCCc1cnc[nH]1)c1c(O)nsc1Nc1ccc(Oc2cc(Cl)ccc2Cl)cc1 was tested, and the IC50 was 1 to 100 nM.

What follows are compounds tested on phosphorylated ERK in MDA-MB-231 breast cancer cells (assay: Western blotting for phosphorylated ERK in EGF-stimulated MDA-MB-231 cells). Settings: Homo sapiens, Table 4, compound 30 min, 100 ng/ml EGF 5 min.
Assay type: cell-based
Description: Effects of compounds in the cell were determined by Western blotting for phosphorylated ERK. MDA-MB-231 breast cancer cells were plated in a 48 well plate at 20,000 cells per well and grown in a 37° humidified CO2 incubator. The following day, the growth media (DMEM+10% fetal bovine serum) was removed and replaced with starve media (DMEM+0.1% fetal bovine serum). Cells were incubated in the starve media for sixteen hours and then treated with a range of compound concentrations for thirty minutes. After incubation with compound, cells were stimulated with 100 ng/ml EGF for five minutes. The cells were then lysed and analyzed by Western blot using a monoclonal antibody raised to phosphorylated ERK. The signal was amplified using a secondary antibody conjugated to a near-IR dye and detected on a Licor Odyssey scanner.
Compound CC1CN(CCNC(=N)c2c(O)nsc2Nc2ccc(Oc3cc(Cl)ccc3Cl)cc2)CC(C)O1 (stereo not shown) has an EC50 of 100 to 500 nM. Work on N=C(NCCN1CCCC1=O)c1c(O)nsc1Nc1ccc(Oc2cc(Cl)ccc2Cl)cc1 yielded an EC50 of 100 to 500 nM. N=C(NCCc1ccccc1)c1c(O)nsc1Nc1ccc(Oc2ccccc2)cc1 [drawing 821] showed an EC50 of 100 to 500 nM. CN1CCN(CCNC(=N)c2c(O)nsc2Nc2ccc(Oc3cc(Cl)ccc3Cl)cc2)CC1 gave an EC50 of 100 to 500 nM. N=C(NCCN1CCNCC1)c1c(O)nsc1Nc1ccc(Oc2cc(Cl)ccc2Cl)cc1 showed an EC50 of 1 to 100 nM. For N=C(NCCN1CCOCC1)c1c(O)nsc1Nc1ccc(Oc2cc(Cl)ccc2Cl)cc1, the EC50 was 1 to 100 nM. For N=C(NCCN1CCNC(=O)C1)c1c(O)nsc1Nc1ccc(Oc2cc(Cl)ccc2Cl)cc1, the EC50 was 1 to 100 nM. Compound N=C(NCCc1cnc[nH]1)c1c(O)nsc1Nc1ccc(Oc2cc(Cl)ccc2Cl)cc1 has an EC50 of 1 to 100 nM. Compound N=C(NCC1CCCO1)c1c(O)nsc1Nc1ccc(Oc2cc(Cl)ccc2Cl)cc1 (stereo not shown) has an EC50 of 1 to 100 nM.
